Assay results published in ChEMBL document CHEMBL1201862, “PubChem BioAssay data set” (2004).
Active and inactive are the calls of the source.

Assays:
Bcl-2-related protein A1 [1] = biological target: T1, Bcl-2-related protein A1 (Mus musculus, UniProt Q07440); test: Bfl-1 inhibitors, primary screen, biochemical, fluorescence polarization, FITC-Bid, mouse (AID 432)
T1 sequence (Q07440 whole entry): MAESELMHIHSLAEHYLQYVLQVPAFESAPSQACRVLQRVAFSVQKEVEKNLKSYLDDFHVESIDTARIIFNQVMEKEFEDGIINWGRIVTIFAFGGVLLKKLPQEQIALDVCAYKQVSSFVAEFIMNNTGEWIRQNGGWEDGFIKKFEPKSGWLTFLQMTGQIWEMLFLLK

Bcl-2-related protein A1 [2] = biological target: T1, Bcl-2-related protein A1; test: Bfl-1 inhibitors blocking BH3 peptide binding, confirmation, biochemical, TR-FRET, mouse Bfl-1 (AID 621);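 note: TR-FRET binding of GST-Bfl-1 to FITC-labelled Bid peptide via terbium antibody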
NADPH oxidase 1 = biological target: T2, NADPH oxidase 1 (Homo sapiens, UniProt Q9Y5S8); test: Late-stage luminescence-based cell-based dose response assay to identify inhibitors of NADPH oxidase 1 (NOX1): Purchased analogs 2.; type: functional
T2 sequence (Q9Y5S8 whole entry): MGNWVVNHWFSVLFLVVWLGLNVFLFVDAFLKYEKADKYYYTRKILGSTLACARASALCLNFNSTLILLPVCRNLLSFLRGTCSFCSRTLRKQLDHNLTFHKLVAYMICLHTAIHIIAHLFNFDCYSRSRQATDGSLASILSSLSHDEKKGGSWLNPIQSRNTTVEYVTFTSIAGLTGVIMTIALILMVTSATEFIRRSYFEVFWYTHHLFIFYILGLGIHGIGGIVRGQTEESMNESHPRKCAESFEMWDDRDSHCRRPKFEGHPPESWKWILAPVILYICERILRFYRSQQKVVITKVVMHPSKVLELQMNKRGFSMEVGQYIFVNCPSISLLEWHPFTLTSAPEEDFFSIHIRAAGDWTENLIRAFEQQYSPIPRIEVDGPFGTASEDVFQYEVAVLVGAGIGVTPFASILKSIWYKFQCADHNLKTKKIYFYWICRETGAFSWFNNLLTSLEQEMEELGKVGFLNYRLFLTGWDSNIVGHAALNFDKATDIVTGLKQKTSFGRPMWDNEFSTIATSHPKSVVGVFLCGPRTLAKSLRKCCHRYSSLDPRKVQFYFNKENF

[3] = Luminescent dose response cell-based high throughput screening assay for inhibitors of the Janus kinase 2 mutant JAK2V617F. [Related pubchem assays: 1446 (Primary screen.), 1521 (Confirmation assay.), 1486 (Counter screen.)]; type: functional
[4] = biological target: 5-hydroxytryptamine receptor 1A (Homo sapiens, UniProt P08908); type: functional
Estrogen receptor beta [5] = biological target: T3, Estrogen receptor beta (Homo sapiens, UniProt Q92731);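 note: recombinant ER-beta bound to coactivator SRC1 peptide in presence of estradiol agonist; inhibitors block coactivator peptide binding and lower the FRET signal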
Estrogen receptor beta [6] = biological target: T3, Estrogen receptor beta; test: ERβ–SRC-3 coactivator interaction inhibitors, confirmation, orthogonal assay, biochemical, ELISA, streptavidin-HRP readout (AID 1060)
[7] = biological target: T4, Carboxy-terminal domain RNA polymerase II polypeptide A small phosphatase 1 (Homo sapiens, UniProt Q9GZU7); test: inhibitors of CTDSP1, concentration-response testing, biochemical assay, absorbance-based, actives from ultra-high-throughput screening (AID 540297); type: functional
T4 sequence (Q9GZU7 whole entry): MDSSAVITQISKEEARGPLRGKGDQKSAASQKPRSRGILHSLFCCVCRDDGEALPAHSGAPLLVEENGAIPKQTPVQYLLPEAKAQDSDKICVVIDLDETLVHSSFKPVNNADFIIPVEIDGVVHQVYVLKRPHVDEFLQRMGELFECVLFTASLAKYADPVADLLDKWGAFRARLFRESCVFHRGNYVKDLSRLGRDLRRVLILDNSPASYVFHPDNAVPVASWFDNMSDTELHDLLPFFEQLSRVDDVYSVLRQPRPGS

[8] = biological target: T5, Corticotropin-releasing factor receptor 2/Corticotropin-releasing factor-binding protein (Homo sapiens, UniProt P24387+Q13324); test: activators of CRF receptor 2 with binding protein – uHTS hits, confirmation (AID 602473); type: functional; conditions: read-out: EC50_Mean
T5 sequence (Q13324 whole entry): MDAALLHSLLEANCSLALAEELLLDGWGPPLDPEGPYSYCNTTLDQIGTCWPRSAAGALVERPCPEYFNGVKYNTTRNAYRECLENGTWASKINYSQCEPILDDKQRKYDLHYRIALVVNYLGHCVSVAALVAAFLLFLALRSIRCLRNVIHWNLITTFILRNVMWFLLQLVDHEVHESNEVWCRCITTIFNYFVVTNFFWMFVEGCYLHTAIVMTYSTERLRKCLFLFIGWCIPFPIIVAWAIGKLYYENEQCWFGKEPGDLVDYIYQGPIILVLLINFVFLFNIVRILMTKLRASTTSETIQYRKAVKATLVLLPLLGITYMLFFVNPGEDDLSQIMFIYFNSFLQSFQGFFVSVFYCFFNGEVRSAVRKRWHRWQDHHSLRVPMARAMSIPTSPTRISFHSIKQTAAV
T5 sequence (P24387 whole entry): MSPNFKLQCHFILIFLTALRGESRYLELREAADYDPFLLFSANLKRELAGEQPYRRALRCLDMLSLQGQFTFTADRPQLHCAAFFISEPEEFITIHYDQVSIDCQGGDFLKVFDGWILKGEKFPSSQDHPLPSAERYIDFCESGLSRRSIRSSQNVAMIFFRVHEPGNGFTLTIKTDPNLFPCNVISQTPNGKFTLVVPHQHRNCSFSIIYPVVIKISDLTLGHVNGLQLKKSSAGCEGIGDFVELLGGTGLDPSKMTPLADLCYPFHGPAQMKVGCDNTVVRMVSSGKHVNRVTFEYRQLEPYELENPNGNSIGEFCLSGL

[9] = NIH-3T3 fibroblast cytotoxicity, dose response, cytotoxicity control, cell-based, fluorescence, Alamar Blue, secondary assay (AID 2327); type: functional;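 note: NIH-3T3 mouse fibroblasts cultured with fluconazole at 8 µg/mL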
[10] = system: Streptococcus sp. 'group A'; test: growth inhibition of control SK(-) GAS strain, dose response, counter-screen for streptokinase expression inhibitor project, luminescence, kanamycin, BacTiterGlo, confirmation (AID 1900); type: functional, organism-based
[11] = C. albicans growth with fluconazole, confirmation, fluorescence, retest (AID 2467); type: functional, cell-based
[12] = biological target: Potassium voltage-gated channel subfamily KQT member 2 (Rattus norvegicus, UniProt O88943, W236L); test: KCNQ2 channel potentiators, dose response, mechanism study for KCNQ2 potentiator project, cell-based, automated electrophysiology (AID 2603); type: functional
Streptococcus = test: Group A Streptococcus viability loss, dose response, counter-screen for streptokinase expression inhibitor project, luminescence, BacTiterGlo (AID 1915); type: functional, organism-based;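 note: potency for reduction of bacterial viability or growth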
[13] = biological target: T6, RNA-binding protein pos-1 (Caenorhabditis elegans, UniProt G5EF15); test: inhibitors of POS-1/mex-3 RNA binding, dose response, biochemical, fluorescence polarization (AID 1964);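 note: purified POS-1 fused to maltose binding protein made in E. coli; potency of compounds blocking POS-1 binding to fluorescent RNA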
T6 sequence (G5EF15 whole entry): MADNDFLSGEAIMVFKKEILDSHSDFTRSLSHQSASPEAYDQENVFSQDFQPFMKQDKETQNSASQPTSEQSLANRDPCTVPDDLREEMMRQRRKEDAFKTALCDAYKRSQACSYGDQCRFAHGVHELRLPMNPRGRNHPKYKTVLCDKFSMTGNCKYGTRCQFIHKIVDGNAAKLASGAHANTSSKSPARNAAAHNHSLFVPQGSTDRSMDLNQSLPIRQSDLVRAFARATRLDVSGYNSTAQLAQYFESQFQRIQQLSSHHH

[14] = biological target: T7, Zinc finger protein mex-5 (Caenorhabditis elegans, UniProt Q9XUB2); test: MEX-5/TCR-2 RNA interaction inhibitors, dose response, biochemical, C. elegans, fluorescence polarization (AID 1960)
T7 sequence (Q9XUB2 whole entry): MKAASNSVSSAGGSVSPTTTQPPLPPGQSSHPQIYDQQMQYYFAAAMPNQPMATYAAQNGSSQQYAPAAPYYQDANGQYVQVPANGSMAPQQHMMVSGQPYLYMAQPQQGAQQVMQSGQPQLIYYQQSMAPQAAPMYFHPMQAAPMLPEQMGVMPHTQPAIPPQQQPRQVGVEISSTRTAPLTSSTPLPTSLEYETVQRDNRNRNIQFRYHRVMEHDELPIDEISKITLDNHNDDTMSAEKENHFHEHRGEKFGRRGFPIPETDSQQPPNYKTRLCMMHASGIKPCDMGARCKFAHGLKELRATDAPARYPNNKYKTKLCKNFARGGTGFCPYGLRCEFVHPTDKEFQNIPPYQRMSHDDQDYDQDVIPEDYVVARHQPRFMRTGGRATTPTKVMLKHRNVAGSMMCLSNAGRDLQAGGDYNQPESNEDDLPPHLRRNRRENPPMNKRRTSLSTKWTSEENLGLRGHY

[15] = Escherichia coli growth inhibition, dose response, counter-screen for MEX-5/POS-1 RNA-binding inhibitor project, luminescence, NEB5alpha (AID 1959); type: functional
[16] = HEp-2 cell cytotoxicity, dose response, cytotoxicity control for RSV inhibitor project, HTS (AID 2410); type: functional; conditions: human respiratory syncytial virus
[17] = M. tuberculosis H37Rv growth inhibitors, H37Rv strain (AID 1626); type: functional

T3 sequence (Q92731 whole entry): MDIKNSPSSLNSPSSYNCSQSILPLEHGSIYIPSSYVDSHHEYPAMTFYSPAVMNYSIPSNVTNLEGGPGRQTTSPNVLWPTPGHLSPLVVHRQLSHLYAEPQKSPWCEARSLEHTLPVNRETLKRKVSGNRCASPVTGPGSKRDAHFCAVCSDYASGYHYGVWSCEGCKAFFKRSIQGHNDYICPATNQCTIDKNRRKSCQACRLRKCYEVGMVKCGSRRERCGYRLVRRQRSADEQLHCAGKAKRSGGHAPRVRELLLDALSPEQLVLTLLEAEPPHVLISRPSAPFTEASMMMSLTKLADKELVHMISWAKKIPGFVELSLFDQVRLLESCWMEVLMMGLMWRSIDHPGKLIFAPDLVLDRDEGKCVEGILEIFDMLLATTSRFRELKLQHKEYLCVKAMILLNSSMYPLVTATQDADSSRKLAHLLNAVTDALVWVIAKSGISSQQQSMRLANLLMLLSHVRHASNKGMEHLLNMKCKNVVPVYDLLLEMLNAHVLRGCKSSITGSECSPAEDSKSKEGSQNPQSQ
Chain of Potassium voltage-gated channel subfamily KQT member 2 (O88943 whole entry W236L): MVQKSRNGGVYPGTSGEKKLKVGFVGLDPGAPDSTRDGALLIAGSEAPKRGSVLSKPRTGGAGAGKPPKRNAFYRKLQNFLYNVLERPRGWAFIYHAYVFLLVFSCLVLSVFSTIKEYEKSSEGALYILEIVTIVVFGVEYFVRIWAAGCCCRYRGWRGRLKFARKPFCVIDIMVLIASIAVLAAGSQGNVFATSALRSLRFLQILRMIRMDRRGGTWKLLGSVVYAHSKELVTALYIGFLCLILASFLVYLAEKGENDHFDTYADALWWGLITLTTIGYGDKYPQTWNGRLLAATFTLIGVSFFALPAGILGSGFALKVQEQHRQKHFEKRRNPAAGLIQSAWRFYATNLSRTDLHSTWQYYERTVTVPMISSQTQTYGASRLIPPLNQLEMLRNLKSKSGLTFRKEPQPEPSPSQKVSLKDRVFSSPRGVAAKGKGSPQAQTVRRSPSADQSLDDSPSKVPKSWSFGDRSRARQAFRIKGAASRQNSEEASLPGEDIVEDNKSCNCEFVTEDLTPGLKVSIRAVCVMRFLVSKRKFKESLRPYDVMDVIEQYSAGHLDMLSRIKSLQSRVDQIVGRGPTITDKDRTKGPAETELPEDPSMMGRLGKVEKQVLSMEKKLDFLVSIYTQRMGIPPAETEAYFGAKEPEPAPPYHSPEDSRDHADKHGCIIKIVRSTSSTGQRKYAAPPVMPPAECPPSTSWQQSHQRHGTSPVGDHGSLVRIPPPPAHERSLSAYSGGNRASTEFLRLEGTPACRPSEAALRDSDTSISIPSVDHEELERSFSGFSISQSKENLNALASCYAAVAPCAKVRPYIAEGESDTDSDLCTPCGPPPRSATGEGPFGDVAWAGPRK
Chain of 5-hydroxytryptamine receptor 1A (P08908 whole entry): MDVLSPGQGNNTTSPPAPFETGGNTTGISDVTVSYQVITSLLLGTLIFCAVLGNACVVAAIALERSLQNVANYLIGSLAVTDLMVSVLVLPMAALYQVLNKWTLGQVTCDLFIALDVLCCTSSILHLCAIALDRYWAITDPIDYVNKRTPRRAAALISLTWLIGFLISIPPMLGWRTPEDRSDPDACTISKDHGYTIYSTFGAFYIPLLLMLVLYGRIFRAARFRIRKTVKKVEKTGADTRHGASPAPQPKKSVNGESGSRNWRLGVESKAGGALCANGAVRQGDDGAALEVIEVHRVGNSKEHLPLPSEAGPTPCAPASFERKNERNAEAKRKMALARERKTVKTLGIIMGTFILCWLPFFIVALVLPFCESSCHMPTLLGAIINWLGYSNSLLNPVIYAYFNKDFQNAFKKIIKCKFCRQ

CN(C)c1ccc(-c2nn3c(-c4ccc(Cl)cc4Cl)nnc3s2)cc1
IC50 (Bcl-2-related protein A1 [1]): > 100 µM (not active)
IC50 (Bcl-2-related protein A1 [2]): > 100 µM (not active)

O=C(Nc1ccc(Oc2ccc(Cl)cc2)cc1)Nc1ccc([N+](=O)[O-])cc1
IC50 (NADPH oxidase 1): > 17 µM (not active)

Oc1ccccc1OCCOc1ccccc1OCCOc1ccccc1O
IC50 [3]: 1.48 µM (active)

c1ccc(N2CCN(Cc3cn4cccnc4n3)CC2)cc1
EC50 [4]: > 50 µM (not active)

CCCc1nc2sc3ccccc3c(=O)c2c(=O)n1Cc1ccco1
IC50 (Estrogen receptor beta [5]): 11.6 µM (active)
IC50 (Estrogen receptor beta [6]): 709 nM (not active)
IC50 [7]: 9.92 µM (active)
EC50 [8]: 13.8 µM (active)

O=C(Cc1ccccc1)N/N=C/c1cc(Br)cc(Cl)c1O
EC50 [9]: > 150 µM (inactive)
EC50 [10]: 1.05 µM (active)
EC50 [11]: 4.68 µM (active)
EC50 [12]: 7.13 µM (active)
EC50 (Streptococcus): 1.73 µM (active)

O=c1c2ccccc2nc(N/N=C/c2ccc(O)cc2)n1O
EC50 [13]: > 300 µM (not active)
EC50 [14]: > 300 µM (inconclusive)
EC50 [15]: 14.3 µM (active)

Cc1cc(-c2ccc(/C=N/n3cnnc3)o2)ccc1Cl
CC50 [16]: > 50 µM (active)
IC50 [17]: > 100 µM (active)
